One assay has as its target T1, Human PKMYT1 (Homo sapiens, UniProt Q99640).
T1 construct: Human PKMYT1 75-362 was cloned as a TEV cleavable 6xHis fusion; 6xHis (TEV cleavable) (cleaved yes); made in house; host or cells: bacterial cells
T1 sequence (Q99640 75-362): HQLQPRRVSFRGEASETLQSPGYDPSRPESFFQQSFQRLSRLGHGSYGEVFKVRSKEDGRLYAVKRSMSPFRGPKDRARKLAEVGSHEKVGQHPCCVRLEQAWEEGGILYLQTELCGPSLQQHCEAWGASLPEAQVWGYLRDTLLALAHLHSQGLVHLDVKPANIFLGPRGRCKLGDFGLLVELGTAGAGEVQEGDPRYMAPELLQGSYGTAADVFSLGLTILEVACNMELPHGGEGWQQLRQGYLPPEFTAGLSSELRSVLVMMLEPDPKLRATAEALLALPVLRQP
Description: PKMYT1 biochemical ADP-Glo enzymatic assay. The following applies: ADP-Glo; 15 nM PKMYT1 kinase domain, 500 µM ATP, 60 minutes at 26° C.; banded. The gist of the method: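 PKMYT1 75-362 (His-cleaved, bacterial) 15 nM; ATP 500 µM; HEPES pH 7.5, MgCl2, EGTA, Brij-35, 1% DMSO; 60 min, 26 °C; ADP-Glo Max luminescence; 10-pt 3-fold titration → IC50; replicates within 3-fold, r2 >0.9.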

A further assay concerns the target T2, WEE1 (Homo sapiens, UniProt P30291).
T2 construct: purchased Thermo Fisher PR7373A
Description: Selectivity versus WEE1 assay (ADP-Glo enzymatic assay). Format: biochemical. The settings on record: banded; for IC50: ADP-Glo, 15 nM WEE1, 60 minutes at 26° C.; for PKMYT1 vs. WEE1 selectivity: fold difference in selectivity for PKMYT1 over WEE1, ">N" = at least in this band but could be higher. The gist of the method: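 15 nM WEE1, 30 µM ATP, 50 mM HEPES pH 7.5, 10 mM MgCl2, 1 mM EGTA, 0.01% Brij-35, 1% DMSO; 60 min, 26° C; ADP-Glo luminescence; IC50 from curve fit, replicates within 3-fold, r2 >0.9.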

T2 sequence (P30291 whole entry): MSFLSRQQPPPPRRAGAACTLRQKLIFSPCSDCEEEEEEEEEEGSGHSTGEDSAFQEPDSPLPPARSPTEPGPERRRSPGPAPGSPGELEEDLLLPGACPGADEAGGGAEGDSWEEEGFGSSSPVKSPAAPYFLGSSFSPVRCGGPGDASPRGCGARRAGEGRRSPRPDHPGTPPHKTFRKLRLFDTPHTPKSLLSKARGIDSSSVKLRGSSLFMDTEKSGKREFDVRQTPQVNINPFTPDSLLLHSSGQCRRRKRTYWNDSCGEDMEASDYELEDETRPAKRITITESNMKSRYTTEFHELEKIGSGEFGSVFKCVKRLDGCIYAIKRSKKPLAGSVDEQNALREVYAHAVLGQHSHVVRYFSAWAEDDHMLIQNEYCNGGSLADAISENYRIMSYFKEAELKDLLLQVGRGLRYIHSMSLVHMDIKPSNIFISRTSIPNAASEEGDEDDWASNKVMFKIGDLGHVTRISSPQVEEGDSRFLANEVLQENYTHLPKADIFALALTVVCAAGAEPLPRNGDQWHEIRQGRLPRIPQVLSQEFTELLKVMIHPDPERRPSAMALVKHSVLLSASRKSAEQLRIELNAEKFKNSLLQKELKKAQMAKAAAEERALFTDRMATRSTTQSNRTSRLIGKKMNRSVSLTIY

As to `CCN(C)C(=O)N1CC[C@@H](n2ccc(Nc3ncc(C(=O)Nc4c(C)ccc(O)c4C)s3)n2)C1` [BAA-111, 2-[[1-[(3R)-1-[Ethyl(methyl)carbamoyl]pyrrolidin-3-yl]pyrazol-3-yl]amino]-N-(3-hydroxy-2,6-dimethyl-phenyl)thiazole-5-carboxamide], the IC50 on Human PKMYT1 lay in the range of 50 to 1000 nM. On WEE1, the IC50 is greater than 11000 nM and the “PKMYT1 vs. WEE1 selectivity” value is recorded as “>Y (1000-5000 fold)”.

Regarding `CCN(CC)C(=O)N1CC[C@@H](n2ccc(Nc3ncc(C(=O)Nc4c(C)ccc(O)c4C)s3)n2)C1` [BAA-112, 2-[[1-[(3R)-1-(Diethylcarbamoyl)pyrrolidin-3-yl]pyrazol-3-yl]amino]-N-(3-hydroxy-2,6-dimethyl-phenyl)thiazole-5-carboxamide], the IC50 against Human PKMYT1 lay within 50 to 1000 nM. Besides, on WEE1, the IC50 is greater than 11000 nM and the “PKMYT1 vs. WEE1 selectivity” value is reported as “>Y (1000-5000 fold)”.

`CCCN1CC[C@@H](n2ccc(Nc3ncc(C(=O)Nc4c(C)ccc(O)c4C)s3)n2)C1` [BAA-114, N-(3-Hydroxy-2,6-dimethyl-phenyl)-2-[[1-[(3R)-1-propylpyrrolidin-3-yl]pyrazol-3-yl]amino]thiazole-5-carboxamide]: the IC50 at Human PKMYT1 lay in the range of 50 to 1000 nM. Further, on WEE1, the IC50 was greater than 11000 nM and the “PKMYT1 vs. WEE1 selectivity” value is recorded as “>X (100-<1000 fold)”.

As to `Cc1ccc(O)c(C)c1NC(=O)c1cnc(Nc2ccn([C@@H]3CCN(CCc4ccccc4)C3)n2)s1` [BAA-115], the IC50 was 50 to 1000 nM against Human PKMYT1 and greater than 11000 nM against WEE1. In addition, at WEE1, the “PKMYT1 vs. WEE1 selectivity” value is “>X (100-<1000 fold)”.

On to `Cc1ccc(O)c(C)c1NC(=O)c1cnc(Nc2ccn([C@@H]3CCN(C)C3)n2)s1` [BAA-116, N-(3-Hydroxy-2,6-dimethyl-phenyl)-2-[[1-[(3R)-1-methylpyrrolidin-3-yl]pyrazol-3-yl]amino]thiazole-5-carboxamide], for which the IC50 on Human PKMYT1 was in the range of 50 to 1000 nM; at WEE1, 1000 to 11000 nM. For the same molecule, the “PKMYT1 vs. WEE1 selectivity” value at WEE1 is given as “W (10-<100 fold)”.

At Human PKMYT1, `Cc1ccc(O)c(C)c1NC(=O)c1cnc(Nc2ccn(CC(=O)N(C)C)n2)s1` [BAA-117, 2-[[1-[2-(Dimethylamino)-2-oxo-ethyl]pyrazol-3-yl]amino]-N-(3-hydroxy-2,6-dimethyl-phenyl)thiazole-5-carboxamide] came in with an IC50 of less than 50 nM. On WEE1, the IC50 was greater than 11000 nM and the “PKMYT1 vs. WEE1 selectivity” value was “Y (1000-5000 fold)”.

In the case of `Cc1ccc(O)c(C)c1NC(=O)c1cnc(Nc2cc(C(=O)O)n(C)n2)s1` [BAA-118, 5-[[5-[(3-hydroxy-2,6-dimethyl-phenyl)carbamoyl]thiazol-2-yl]amino]-2-methyl-pyrazole-3-carboxylic acid], the IC50 on Human PKMYT1 is less than 50 nM. Further, on WEE1, the IC50 is greater than 11000 nM and the “PKMYT1 vs. WEE1 selectivity” value is given as “X (100-<1000 fold)”.

`CNC(=O)c1cc(Nc2ncc(C(=O)Nc3c(C)ccc(O)c3C)s2)nn1C` [BAA-119, N-(3-hydroxy-2,6-dimethyl-phenyl)-2-[[1-methyl-5-(methylcarbamoyl)pyrazol-3-yl]amino]thiazole-5-carboxamide] registered an IC50 against Human PKMYT1 of 50 to 1000 nM. On WEE1, the IC50 was greater than 11000 nM and the “PKMYT1 vs. WEE1 selectivity” value was “X (100-<1000 fold)”.

`Cc1ccc(O)c(C)c1NC(=O)c1cnc(Nc2cc(C(=O)N(C)C)n(C)n2)s1` [BAA-120, 2-[[5-(dimethylcarbamoyl)-1-methyl-pyrazol-3-yl]amino]-N-(3-hydroxy-2,6-dimethyl-phenyl)thiazole-5-carboxamide]: the IC50 against Human PKMYT1 lay in the range of 50 to 1000 nM; against WEE1, 1000 to 11000 nM. Besides, the “PKMYT1 vs. WEE1 selectivity” value on WEE1 is “X (100-<1000 fold)”.

With `Cc1ccc(O)c(C)c1NC(=O)c1cnc(Nc2cc(C(=O)O)nn2C)s1` [BAA-121, 5-[[5-[(3-hydroxy-2,6-dimethyl-phenyl)carbamoyl]thiazol-2-yl]amino]-1-methyl-pyrazole-3-carboxylic acid], the IC50 on Human PKMYT1 is 50 to 1000 nM. At WEE1, the IC50 is greater than 11000 nM and the “PKMYT1 vs. WEE1 selectivity” value was “X (100-<1000 fold)”.

At Human PKMYT1, `Cc1ccc(O)c(C)c1NC(=O)c1cnc(Nc2cc(C)n(C)n2)s1` [BAA-122, 2-[(1,5-dimethylpyrazol-3-yl)amino]-N-(3-hydroxy-2,6-dimethyl-phenyl)thiazole-5-carboxamide] displayed an IC50 of 50 to 1000 nM. On WEE1, the IC50 lay within 1000 to 11000 nM and the “PKMYT1 vs. WEE1 selectivity” value is reported as “X (100-<1000 fold)”.

As for `Cc1ccc(O)c(C)c1NC(=O)c1cnc(Nc2cc(C)n(CC(=O)O)n2)s1` [BAA-124, 2-[3-[[5-[(3-hydroxy-2,6-dimethyl-phenyl)carbamoyl]thiazol-2-yl]amino]-5-methyl-pyrazol-1-yl]acetic acid], on Human PKMYT1, the IC50 was less than 50 nM. Moreover, on WEE1, the IC50 is greater than 11000 nM and the “PKMYT1 vs. WEE1 selectivity” value is given as “X (100-<1000 fold)”.

`Cc1cn(CC(=O)O)nc1Nc1ncc(C(=O)Nc2c(C)ccc(O)c2C)s1` [BAA-125, 2-[3-[[5-[(3-hydroxy-2,6-dimethyl-phenyl)carbamoyl]thiazol-2-yl]amino]-4-methyl-pyrazol-1-yl]acetic acid] showed an IC50 on Human PKMYT1 of less than 50 nM. In addition, at WEE1, the IC50 is greater than 11000 nM and the “PKMYT1 vs. WEE1 selectivity” value is given as “Y (1000-5000 fold)”.

Consider `Cc1cc(Nc2ncc(C(=O)Nc3c(C)ccc(O)c3C)s2)n(C)n1` [BAA-127, 2-[(2,5-dimethylpyrazol-3-yl)amino]-N-(3-hydroxy-2,6-dimethyl-phenyl)thiazole-5-carboxamide], for which, on Human PKMYT1, the IC50 was less than 50 nM. Further, on WEE1, the IC50 was greater than 11000 nM and the “PKMYT1 vs. WEE1 selectivity” value was “Y (1000-5000 fold)”.

As for `Cc1ccc(O)c(C)c1NC(=O)c1cnc(Nc2cc(C(N)=O)n(C)n2)s1` [BAA-130, 2-[(5-Carbamoyl-1-methyl-pyrazol-3-yl)amino]-N-(3-hydroxy-2,6-dimethyl-phenyl)thiazole-5-carboxamide], the IC50 against Human PKMYT1 was less than 50 nM. Also, at WEE1, the IC50 fell in the range of 1000 to 11000 nM and the “PKMYT1 vs. WEE1 selectivity” value is given as “X (100-<1000 fold)”.

On to `Cc1ccc(O)c(C)c1NC(=O)c1cnc(Nc2cc(C(N)=O)nn2C)s1` [BAA-131, 2-[(5-Carbamoyl-2-methyl-pyrazol-3-yl)amino]-N-(3-hydroxy-2,6-dimethyl-phenyl)thiazole-5-carboxamide], for which the IC50 on Human PKMYT1 is less than 50 nM. Besides, on WEE1, the IC50 was greater than 11000 nM and the “PKMYT1 vs. WEE1 selectivity” value is given as “Y (1000-5000 fold)”.

With `Cc1ccc(O)c(C)c1NC(=O)c1cnc(Nc2ccn(CC(=O)N3CCC(O)CC3)n2)s1` [BAA-132, N-(3-Hydroxy-2,6-dimethyl-phenyl)-2-[[1-[2-(4-hydroxy-1-piperidyl)-2-oxo-ethyl]pyrazol-3-yl]amino]thiazole-5-carboxamide], the IC50 against Human PKMYT1 is less than 50 nM; at WEE1, greater than 11000 nM. For the same molecule, the “PKMYT1 vs. WEE1 selectivity” value on WEE1 was “Y (1000-5000 fold)”.

On to `Cc1ccc(O)c(C)c1NC(=O)c1cnc(Nc2ccn(CC(N)=O)n2)s1` [BAA-133, 2-[[1-(2-amino-2-oxo-ethyl)pyrazol-3-yl]amino]-N-(3-hydroxy-2,6-dimethyl-phenyl) thiazole-5-carboxamide], for which the IC50 was less than 50 nM at Human PKMYT1 and 1000 to 11000 nM at WEE1. Moreover, the “PKMYT1 vs. WEE1 selectivity” value at WEE1 is listed as “X (100-<1000 fold)”.

Consider `COCCOCCNC(=O)Cn1ccc(Nc2ncc(C(=O)Nc3c(C)ccc(O)c3C)s2)n1` [BAA-134, N-(3-hydroxy-2,6-dimethyl-phenyl)-2-[[1-[2-[2-(2-methoxyethoxy)ethylamino]-2-oxo-ethyl]pyrazol-3-yl]amino]thiazole-5-carboxamide], for which the IC50 against Human PKMYT1 is less than 50 nM; against WEE1, greater than 11000 nM. Also, the “PKMYT1 vs. WEE1 selectivity” value on WEE1 is recorded as “Y (1000-5000 fold)”.

`CCCCCCCNC(=O)Cn1ccc(Nc2ncc(C(=O)Nc3c(C)ccc(O)c3C)s2)n1` [BAA-135]: the IC50 against Human PKMYT1 is less than 50 nM. Further, at WEE1, the IC50 was in the range of 1000 to 11000 nM and the “PKMYT1 vs. WEE1 selectivity” value was “X (100-<1000 fold)”.

The molecule `Cc1ccc(O)c(C)c1NC(=O)c1cnc(Nc2ccn(CC(=O)N3CCC(F)(F)CC3)n2)s1` [BAA-136, 2-[[1-[2-(4,4-difluoro-1-piperidyl)-2-oxo-ethyl]pyrazol-3-yl]amino]-N-(3-hydroxy-2,6-dimethyl-phenyl)thiazole-5-carboxamide] returned an IC50 against Human PKMYT1 of less than 50 nM. Moreover, at WEE1, the IC50 is greater than 11000 nM and the “PKMYT1 vs. WEE1 selectivity” value is reported as “Y (1000-5000 fold)”.

Take `Cc1ccc(O)c(C)c1NC(=O)c1cnc(Nc2ccn(CC(=O)NC(C)(C)CO)n2)s1` [BAA-138, 2-[1-[2-[(2-hydroxy-1,1-dimethyl-ethyl)amino]-2-oxo-ethyl]pyrazol-3-ylJamino]-N-(3-hydroxy-2,6-dimethyl-phenyl)thiazole-5-carboxamide]: the IC50 at Human PKMYT1 was 50 to 1000 nM; at WEE1, greater than 11000 nM. The “PKMYT1 vs. WEE1 selectivity” value on WEE1 is recorded as “X (100-<1000 fold)”.

The molecule `Cc1ccc(O)c(C)c1NC(=O)c1cnc(Nc2ccn(CC(=O)N3CC[C@@H](O)C3)n2)s1` [BAA-139, N-(3-hydroxy-2,6-dimethyl-phenyl)-2-[[1-[2-[(3R)-3-hydroxypyrrolidin-1-yl]-2-oxo-ethyl]pyrazol-3-yl]amino]thiazole-5-carboxamide] had an IC50 on Human PKMYT1 of less than 50 nM. At WEE1, the IC50 is greater than 11000 nM and the “PKMYT1 vs. WEE1 selectivity” value is listed as “Y (1000-5000 fold)”.

The values are drawn from patent US20260297042A1, “BIARYLAMIDE DERIVATIVES AND THEIR USE AS PKMYT1 INHIBITORS” (CANCER RESEARCH TECHNOLOGY LIMITED, priority 2023, published 2026).
